Experimental data from ChEMBL document CHEMBL3124800, “HTS followed by NMR based counterscreening. Discovery and optimization of pyrimidones as reversible and competitive inhibitors of xanthine oxidase” (Bioorg Med Chem Lett, 2014).
≈ marks a conversion by molar mass, not a printed value.

Experiments:
[1] = Apparent permeability across basolateral side to apical side in human Caco2 cells; settings: Caco-2
[2] = Apparent permeability across apical side to basolateral side in human Caco2 cells; settings: Caco-2
[3] = Intrinsic clearance in human liver microsomes; format: ADME; settings: read-out: CLH
[4] = Solubility of the compound in phosphate buffer at pH 7.4
[5] = Plasma concentration in potassium oxonate-induced hyperuricemic Sprague-Dawley rat model at 10 mg/kg, po measured after 2 hrs; format: ADME, organism-based; set-up: dose 10 mg/kg, route oral
Rattus norvegicus [6] = assay: Antihyperuricemic activity in potassium oxonate-induced hyperuricemic Sprague-Dawley rat model assessed as decrease of uric acid level in serum at 10 mg/kg, po measured after 1 hr relative to vehicle-treated control; format: functional; set-up: scale not given: the % may be the effect or the level left
Rattus norvegicus [7] = assay: Antihyperuricemic activity in potassium oxonate-induced hyperuricemic Sprague-Dawley rat model assessed as decrease of uric acid level in serum at 10 mg/kg, po measured after 2 hrs relative to vehicle-treated control; format: functional; set-up: scale not given: the % may be the effect or the level left
[8] = target: Xanthine dehydrogenase/oxidase (Homo sapiens, UniProt P47989)
[9] = target: Xanthine dehydrogenase/oxidase (Rattus norvegicus, UniProt P22985); assay: Inhibition of rat xanthine oxidase
Plasma = assay: Antihyperuricemic activity in potassium oxonate-induced hyperuricemic Sprague-Dawley rat model assessed as decrease of uric acid level in serum at 30 mg/kg, po measured after 2 hrs relative to vehicle-treated control; format: functional; set-up: scale not given: the % may be the effect or the level left
Rattus norvegicus [10] = assay: Antihyperuricemic activity in potassium oxonate-induced hyperuricemic Sprague-Dawley rat model assessed as decrease of uric acid level in serum at 30 mg/kg, po measured after 1 hr relative to vehicle-treated control; format: functional; set-up: scale not given: the % may be the effect or the level left
[11] = target: T1, Xanthine dehydrogenase/oxidase (Bos taurus, UniProt P80457); assay: Reversible inhibition of bovine xanthine oxidase; settings: cattle
[12] = target: T1, Xanthine dehydrogenase/oxidase; assay: Competitive inhibition of bovine xanthine oxidase
[13] = Oral bioavailability in Han Wistar rat at 6 umol/kg; format: ADME, organism-based; settings: in vivo
[14] = Cmax in Han Wistar rat at 6 umol/kg, po; format: ADME, organism-based; set-up: dose 6 umol/kg, route oral; settings: in vivo
Rattus norvegicus [15] = assay: Volume of distribution at steady state in Han Wistar rat at […]; format: ADME, organism-based; settings: in vivo
[16] = Half life in Han Wistar rat at 1 umol/kg, iv; format: ADME, organism-based; settings: in vivo
[17] = Clearance in Han Wistar rat at 1 umol/kg, iv; format: ADME, organism-based; settings: in vivo
Hepatocyte = assay: Intrinsic clearance in human hepatocytes assessed per million cells; format: ADME, cell-based
[18] = target: T1, Xanthine dehydrogenase/oxidase; assay: Inhibition of bovine xanthine oxidase

Sequence of Xanthine dehydrogenase/oxidase (Homo sapiens, UniProt P47989) (P47989 whole entry): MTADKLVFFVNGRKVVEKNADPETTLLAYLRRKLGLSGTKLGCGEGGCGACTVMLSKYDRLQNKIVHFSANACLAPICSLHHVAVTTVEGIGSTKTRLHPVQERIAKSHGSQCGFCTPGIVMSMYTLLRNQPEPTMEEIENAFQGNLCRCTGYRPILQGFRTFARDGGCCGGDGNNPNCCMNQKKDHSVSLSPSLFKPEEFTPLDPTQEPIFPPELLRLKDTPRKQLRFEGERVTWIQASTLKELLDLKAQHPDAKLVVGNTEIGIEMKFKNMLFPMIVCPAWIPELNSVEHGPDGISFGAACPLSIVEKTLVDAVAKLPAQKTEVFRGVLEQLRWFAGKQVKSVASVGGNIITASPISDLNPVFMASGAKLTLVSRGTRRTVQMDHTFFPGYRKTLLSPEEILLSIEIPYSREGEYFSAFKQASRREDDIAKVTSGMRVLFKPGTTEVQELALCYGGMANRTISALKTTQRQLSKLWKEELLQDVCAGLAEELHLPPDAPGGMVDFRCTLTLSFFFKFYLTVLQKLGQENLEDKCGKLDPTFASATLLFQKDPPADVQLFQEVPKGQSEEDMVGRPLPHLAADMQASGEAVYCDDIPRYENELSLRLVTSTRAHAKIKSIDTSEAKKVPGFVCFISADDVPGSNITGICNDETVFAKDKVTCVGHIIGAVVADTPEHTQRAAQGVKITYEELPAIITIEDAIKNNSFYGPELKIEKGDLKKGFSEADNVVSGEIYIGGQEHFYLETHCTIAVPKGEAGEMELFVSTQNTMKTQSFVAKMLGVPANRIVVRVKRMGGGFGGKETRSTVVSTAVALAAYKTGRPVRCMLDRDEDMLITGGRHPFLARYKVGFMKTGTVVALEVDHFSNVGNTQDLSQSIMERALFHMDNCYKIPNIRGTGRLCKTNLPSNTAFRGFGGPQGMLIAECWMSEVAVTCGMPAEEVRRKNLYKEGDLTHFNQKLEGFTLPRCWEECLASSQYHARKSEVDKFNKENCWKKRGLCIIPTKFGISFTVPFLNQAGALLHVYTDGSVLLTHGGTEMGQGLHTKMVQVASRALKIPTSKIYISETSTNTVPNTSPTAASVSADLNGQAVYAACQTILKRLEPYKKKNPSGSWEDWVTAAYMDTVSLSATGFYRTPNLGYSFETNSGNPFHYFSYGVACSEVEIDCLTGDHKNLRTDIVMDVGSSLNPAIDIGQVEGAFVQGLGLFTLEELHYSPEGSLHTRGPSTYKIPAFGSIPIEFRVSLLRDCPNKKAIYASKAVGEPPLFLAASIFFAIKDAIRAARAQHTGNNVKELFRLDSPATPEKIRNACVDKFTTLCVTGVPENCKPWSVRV
T1 sequence (P80457 whole entry): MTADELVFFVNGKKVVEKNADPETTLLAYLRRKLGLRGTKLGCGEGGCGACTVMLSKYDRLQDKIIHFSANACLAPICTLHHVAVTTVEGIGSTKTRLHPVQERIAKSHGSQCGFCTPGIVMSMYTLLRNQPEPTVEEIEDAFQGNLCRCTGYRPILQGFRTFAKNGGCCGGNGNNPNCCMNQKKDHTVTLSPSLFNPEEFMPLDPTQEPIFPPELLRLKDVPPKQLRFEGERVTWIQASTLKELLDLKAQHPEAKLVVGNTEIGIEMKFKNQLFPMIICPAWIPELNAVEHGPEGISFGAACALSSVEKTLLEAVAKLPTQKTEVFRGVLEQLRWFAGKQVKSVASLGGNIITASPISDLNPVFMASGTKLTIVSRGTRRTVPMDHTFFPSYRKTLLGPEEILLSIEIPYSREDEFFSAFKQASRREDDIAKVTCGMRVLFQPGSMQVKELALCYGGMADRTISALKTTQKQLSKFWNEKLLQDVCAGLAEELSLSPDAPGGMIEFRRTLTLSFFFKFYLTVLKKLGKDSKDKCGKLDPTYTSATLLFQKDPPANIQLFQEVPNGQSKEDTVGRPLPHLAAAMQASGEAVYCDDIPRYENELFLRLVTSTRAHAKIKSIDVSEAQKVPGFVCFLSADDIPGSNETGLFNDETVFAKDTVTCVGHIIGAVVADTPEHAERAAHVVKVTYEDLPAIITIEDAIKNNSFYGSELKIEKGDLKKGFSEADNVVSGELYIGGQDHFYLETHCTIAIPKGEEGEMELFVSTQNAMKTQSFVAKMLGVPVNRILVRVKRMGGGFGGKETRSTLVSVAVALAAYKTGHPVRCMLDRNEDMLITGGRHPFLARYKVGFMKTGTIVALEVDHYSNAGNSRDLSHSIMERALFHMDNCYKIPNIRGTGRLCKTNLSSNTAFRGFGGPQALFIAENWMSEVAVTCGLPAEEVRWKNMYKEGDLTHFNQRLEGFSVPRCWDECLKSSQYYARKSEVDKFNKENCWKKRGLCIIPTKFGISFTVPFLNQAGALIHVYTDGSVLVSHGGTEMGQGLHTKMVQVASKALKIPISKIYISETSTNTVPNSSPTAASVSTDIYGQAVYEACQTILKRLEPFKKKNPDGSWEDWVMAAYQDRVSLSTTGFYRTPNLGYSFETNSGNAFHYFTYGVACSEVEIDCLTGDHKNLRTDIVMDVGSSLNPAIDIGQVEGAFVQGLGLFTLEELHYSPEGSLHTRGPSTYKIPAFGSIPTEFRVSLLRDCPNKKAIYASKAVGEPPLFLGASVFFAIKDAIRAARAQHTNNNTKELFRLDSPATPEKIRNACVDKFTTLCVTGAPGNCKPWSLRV
Sequence of Xanthine dehydrogenase/oxidase (Rattus norvegicus, UniProt P22985) (P22985 whole entry): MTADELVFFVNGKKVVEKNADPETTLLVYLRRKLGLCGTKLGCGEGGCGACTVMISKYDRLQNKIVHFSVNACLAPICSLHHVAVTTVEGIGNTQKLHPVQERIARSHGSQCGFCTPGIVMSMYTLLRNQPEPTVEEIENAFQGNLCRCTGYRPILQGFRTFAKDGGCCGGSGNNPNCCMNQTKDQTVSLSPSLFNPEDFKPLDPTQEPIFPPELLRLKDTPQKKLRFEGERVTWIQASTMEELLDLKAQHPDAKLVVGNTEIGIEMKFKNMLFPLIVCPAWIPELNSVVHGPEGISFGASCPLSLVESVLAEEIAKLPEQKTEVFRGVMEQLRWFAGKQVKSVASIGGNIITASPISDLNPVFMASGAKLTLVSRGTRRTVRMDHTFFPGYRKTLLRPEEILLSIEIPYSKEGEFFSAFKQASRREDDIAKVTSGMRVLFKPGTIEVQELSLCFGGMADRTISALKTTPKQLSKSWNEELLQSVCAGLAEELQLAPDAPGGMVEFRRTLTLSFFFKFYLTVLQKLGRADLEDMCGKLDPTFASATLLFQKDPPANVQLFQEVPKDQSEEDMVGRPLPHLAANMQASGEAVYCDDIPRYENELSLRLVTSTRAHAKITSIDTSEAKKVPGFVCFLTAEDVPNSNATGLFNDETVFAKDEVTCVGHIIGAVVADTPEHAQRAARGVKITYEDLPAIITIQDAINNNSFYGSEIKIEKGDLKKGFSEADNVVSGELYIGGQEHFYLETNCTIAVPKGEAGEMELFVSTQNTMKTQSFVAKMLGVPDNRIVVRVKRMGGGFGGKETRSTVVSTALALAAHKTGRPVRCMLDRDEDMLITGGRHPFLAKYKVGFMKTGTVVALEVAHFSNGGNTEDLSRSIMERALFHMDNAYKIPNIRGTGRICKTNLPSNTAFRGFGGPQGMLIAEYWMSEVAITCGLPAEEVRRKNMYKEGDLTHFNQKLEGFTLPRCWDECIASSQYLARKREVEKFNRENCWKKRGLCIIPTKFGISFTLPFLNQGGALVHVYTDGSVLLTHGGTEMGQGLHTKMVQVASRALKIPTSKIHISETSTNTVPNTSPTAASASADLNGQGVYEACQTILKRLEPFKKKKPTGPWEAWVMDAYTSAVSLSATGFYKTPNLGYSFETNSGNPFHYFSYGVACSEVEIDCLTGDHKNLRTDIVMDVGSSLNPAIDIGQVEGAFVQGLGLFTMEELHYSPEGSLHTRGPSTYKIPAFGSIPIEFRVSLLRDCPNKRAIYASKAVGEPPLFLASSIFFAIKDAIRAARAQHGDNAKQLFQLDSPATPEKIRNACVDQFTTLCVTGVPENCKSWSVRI

Structure (SMILES) | Papp B→A [1] [×10⁻⁶ cm/s] | Papp A→B [2] [×10⁻⁶ cm/s] | microsomal CLint [3] [µL/min/mg] | solubility [4] [µM] | further results
N#Cc1cc(-c2nc(N)[nH]c(=O)c2Cl)ccc1OCC1CCOC1 (stereo unspecified) | 24 | 0.2 | 3.4 | 41 (≈ 14.2 µg/mL) | 
Cc1nc(-c2ccc(OCC(C)C)c(C#N)c2)sc1C(=O)O [FEBUXOSTAT] |  |  |  |  | concentration at 2 h [5]: 8700 nM; Activity (Rattus norvegicus [6]): 78%; Activity (Rattus norvegicus [7]): 75%; IC50 [8]: 1.26 nM; IC50 [9]: 3.98 nM
CC(=O)Nc1nc(-c2ccccc2)cc(=O)[nH]1 |  |  |  |  | IC50 [8]: > 100000 nM
Cn1c(N)nc(-c2ccccc2)cc1=O |  |  |  |  | IC50 [8]: > 100000 nM
CC(C)COc1ccc(-c2cc(=O)[nH]c(N)n2)cc1 |  |  | 42 | 23 (≈ 5.96 µg/mL) | 
CC(C)COc1ccc(-c2cc(=O)[nH]c(N)n2)cc1C#N |  |  | 7.9 | 140 (≈ 39.8 µg/mL) | 
COc1ccc(-c2cnc3nc[nH]c(=O)c3n2)cc1 |  |  |  |  | IC50 [8]: 15800 nM
Oc1ncnc2[nH]ncc12 [ALLOPURINOL] |  |  |  |  | Activity (Plasma): 94%; Activity (Rattus norvegicus [10]): 87%
Nc1nc(-c2cccc(C(F)(F)F)c2)cc(=O)[nH]1 |  |  |  | 36 (≈ 9.19 µg/mL) | 
O=c1[nH]ccc2nc(-c3cccc(C(F)(F)F)c3)cn12 |  |  |  |  | inhibition (INH) [11]: Active; IC50 [12]: 398 nM
CS(=O)(=O)Nc1nc(-c2ccccc2)cc(=O)[nH]1 |  |  |  |  | IC50 [8]: > 100000 nM
Nc1nc(-c2ccc(OCCCCO)cc2)cc(=O)[nH]1 |  |  | 6.8 | 95 (≈ 26.2 µg/mL) | 
CC(=O)Nc1ccc(-c2cc(=O)[nH]c(N)n2)cc1 |  |  |  |  | CLH (Hepatocyte): 2.7 µL/min/1e6 cells
c1ccc(-c2nn3c(-c4cnccn4)nnc3s2)cc1 |  |  |  |  | IC50 [18]: 79.4 nM
Nc1nc(-c2ccc(OCc3ccccc3)cc2)cc(=O)[nH]1 |  |  |  | < 1 | 
N#Cc1cc(-c2cc(=O)[nH]c(N)n2)cc(C(F)(F)F)c1 |  |  | 0.2 | 430 (≈ 120 µg/mL) | 
Cc1cc(-c2nc(N)[nH]c(=O)c2Cl)cc(C#N)c1OCC1CCOC1 (stereo unspecified) | 35 | 2.1 | 5.3 | 83 (≈ 29.9 µg/mL) | 
Cc1cc(C#N)cc(-c2cc(=O)[nH]c(N)n2)c1 |  |  | 1.2 | 350 (≈ 79.2 µg/mL) | 
Nc1nc(-c2cccc(OC(F)(F)F)c2)cc(=O)[nH]1 |  |  | 3.2 | 330 (≈ 89.5 µg/mL) | 
Nc1nc(-c2ccc(OCC3CCOC3)cc2)cc(=O)[nH]1 (stereo unspecified) |  |  | 21 | 58 (≈ 16.7 µg/mL) | 
Nc1nc(-c2ccccc2)c(Br)c(=O)[nH]1 [BROPIRIMINE] |  |  |  |  | IC50 [8]: 1000 nM

Now from value to molecule, other results behind:

Papp B→A [1] [×10⁻⁶ cm/s] | Papp A→B [2] [×10⁻⁶ cm/s] | microsomal CLint [3] [µL/min/mg] | solubility [4] [µM] | Structure (SMILES) | further results
4.1 | 0.4 | 36 | 6 (≈ 2.29 µg/mL) | CC(C)(C)COc1ccc(-c2nc(N)[nH]c(=O)c2C#N)cc1OC(F)(F)F | 
 |  | 6.9 | 3.1 (≈ 0.847 µg/mL) | CC(C)(C)COc1ccc(-c2cc(=O)[nH]c(N)n2)cc1 | 
23 | 1.7 | 8.5 | 1.2 (≈ 0.423 µg/mL) | CC(C)COc1ccc(-c2nc(N)[nH]c(=O)c2C#N)cc1C(F)(F)F | 
69 | 8.4 | 7.5 | 24 (≈ 9.35 µg/mL) | Nc1nc(-c2ccc(OCC3CCOC3)c(C(F)(F)F)c2)c(Cl)c(=O)[nH]1 (stereo unspecified) | bioavailability [13]: 33%; Cmax [14]: 270 nM; Vdss (Rattus norvegicus [15]): 5.7 L/kg; half-life [16]: 10 h; clearance [17]: 15 mL/min/kg
30 | 0.1 | 4.1 | 14 (≈ 4.33 µg/mL) | CC(C)COc1ccc(-c2nc(N)[nH]c(=O)c2C#N)cc1C#N | bioavailability [13]: 5.5%; Cmax [14]: 70 nM; Vdss (Rattus norvegicus [15]): 2.5 L/kg; half-life [16]: 19 h; clearance [17]: 1.8 mL/min/kg
25.6 | 0.2 | 1.7 | 93 (≈ 31.1 µg/mL) | N#Cc1cc(-c2nc(N)[nH]c(=O)c2Cl)ccc1OCCCCO | 
 |  | 3.6 | 37 (≈ 12 µg/mL) | CNc1nc(-c2ccc(OCC(C)C)c(C#N)c2)c(C#N)c(=O)[nH]1 | 
31 | 0.1 | 1.7 | 45 (≈ 13.8 µg/mL) | N#Cc1cc(-c2nc(N)[nH]c(=O)c2C#N)ccc1OCC1CC1 | 
29 | 0.1 | 21 | 86 (≈ 34.1 µg/mL) | N#Cc1c(-c2ccc(OCC3CCOC3)c(OC(F)(F)F)c2)nc(N)[nH]c1=O (stereo unspecified) | 
 |  | 16 |  | CC(C)COc1ccc(-c2nc(N)[nH]c(=O)c2Cl)cc1C#N | 
74 | 6.4 | 18 | 45 (≈ 18.3 µg/mL) | Nc1nc(-c2ccc(OCC3CCOC3)c(OC(F)(F)F)c2)c(Cl)c(=O)[nH]1 (stereo unspecified) | concentration at 2 h [5]: 370 nM; Activity (Rattus norvegicus [6]): 55%; Activity (Rattus norvegicus [7]): 54%; bioavailability [13]: 22%; Cmax [14]: 80 nM; Vdss (Rattus norvegicus [15]): 13 L/kg; half-life [16]: 13.2 h; clearance [17]: 35 mL/min/kg; IC50 [9]: 7.94 nM
